{"source": "patent US20130150455A1", "about": "“METHOD FOR TREATING MECHANICAL ALLODYNIA COMPRISING ADMINISTRATION OF EUGENOL” (SNU R&DB FOUNDATION, priority 2011, published 2013)", "key": {"[1]": {"system": "hyperpolarization-activated current (Ih) in TG neurons (HCN channels)", "assay": "Whole-cell recordings of Ih in TG neurons", "type": "cell-based, rat"}, "TG neurons": {"system": "TG neurons", "assay": "Current-clamp action potential firing in TG neurons", "type": "cell-based, rat", "settings": "200 μM", "experimental": "TG neurons from 2- to 7-day-old neonatal rats or adult rats (200 to 300 g) were prepared as previously described [Fang, Z. et al., J. Biol. Chem., 2007, 282: 4757-4764]. Briefly, TG neurons prepared in 4° C. Hanks balanced salt solution (Welgene, Daegu, Korea) were incubated in 2 mL Hanks balanced salt solution containing 0.167% trypsin (Invitrogen, Carlsbad, Calif.) at 37° C. for 40 min. The cells were washed in DMEM and triturated with a flame-polished Pasteur pipette to separate cells and remove processes, and subsequently centrifuged (750 RPM, 5 min), resuspended and placed on 0.5 mg/mL poly-L-ornithine (Sigma, St. Louis, Mo.)-coated glass coverslips (12 mm in diameter). The cells were maintained at 37° C. in a […]/5% CO2 incubator.\nWhole-cell recordings were made using patch electrodes (4 to 6 MΩ) pulled from borosilicate glass on a Brown-Flaming P-97 horizontal micropipette puller (Sutter Instruments, Novato, Calif.). Voltage- and current-clamp experiments were performed using an HEKA EPC9 amplifier and digitized using ITC16 and Pulse v8.54 software (both from HEKA, Lambrecht/Pfalz, Germany). […] Data were analyzed by Origin 6.0 software. […]\nIh was elicited by a 2 s pulse from a holding potential of −50 mV to −120 mV in 10 mV steps. […] The reversal potential of the eugenol-sensitive currents was determined by measuring the tail currents. […]"}, "[2]": {"system": "voltage-gated sodium channels (VGSCs)", "assay": "VGSC currents in TG neurons in normal bath solution", "type": "cell-based, rat", "settings": "200 μM, n=3", "experimental": "(B) The left figure represents the comparison of action potentials at an expanded time scale before and after exposure to eugenol (200 μM), and the Right figure represents a summary of the dV/dt analysis. (C) The left figure represents superimposed current traces before and during exposure to eugenol (200 μM) in the normal bath solution where inward currents result from VGSCs, and the right figure represents a summary of eugenol-induced VGSC currents inhibition (n=3).\nWhole-cell recordings were made using patch electrodes (4 to 6 MΩ) pulled from borosilicate glass on a Brown-Flaming P-97 horizontal micropipette puller (Sutter Instruments, Novato, Calif.). Voltage- and current-clamp experiments were performed using an HEKA EPC9 amplifier and digitized using ITC16 and Pulse v8.54 software (both from HEKA, Lambrecht/Pfalz, Germany). Signals were filtered at 1 kHz and sampled at 3 kHz. Series resistance was typically less than 20 MΩ and was compensated by about 70 to 80%. Electrical recordings were performed at room temperature. The 3 M KCl agar bridge (Warner Instruments, Hamden, Conn.) is used to avoid high liquid junction potentials. Data were analyzed by Origin 6.0 software.\nExtracellular solution containing 140 mM NaCl, 2 mM CaCl2, 1 mM MgCl2, 5 mM KCl, 10 mM HEPES, 10 mM D-glucose was adjusted to pH 7.4 with NaOH, 290 to 310 mOsm. […]"}, "ION-CCI rats [3]": {"system": "ION-CCI rats", "assay": "Mechanical allodynia, air-puff threshold head withdrawal test", "type": "in vivo, rat", "experimental": "(§1) All surgical and experimental procedures were reviewed and approved by the Institutional Animal Care and Use Committee at the School of Dentistry, Seoul National University. Animal treatments were performed in strict accordance with the ethical guidelines of the International Association for the Study of Pain for the investigations of experimental pain in conscious animals [Zimmermann, M., Pain, 1983, 16: 109-110], and the National Institute of Health Guide for the Care and Use of Laboratory Animals. Behavioral tests were carried out on male Sprague Dawley rats (OrientBio, Sungnam, Korea) weighing 200-250 g. The rats were maintained in a temperature-controlled room with a 12/12-h light/dark cycle and fed food and water ad libitum. The animals were allowed to habituate to the housing facilities for 1 week before the experiments.\n(§2) Surgical procedures were performed under 0.5 mL/kg (i.m.) of a mixture of equal volumes of ketamine (100 mg/mL) and xylazine (20 mg/mL) anesthesia. Under anesthesia, a chronic constriction injury of the infraorbital nerve (ION-CCI) was performed from the original description of Imamura et al. [Imamura, Y. et al., Exp. Brain Res., 1997, 116: 97-103]. A 1-cm-long incision was made along the gingivobuccal margin. The incision was begun proximal to the first molar. Approximately 0.5 cm of the ION was separated from the adhering tissue, and 2 ligatures (5-0 chromic gut) were tied loosely around it. The incision was sutured at 3 points with 4-0 silk. The sham operation was performed without ligation of the infraorbital nerve.\nOn postoperative 7 day, ION-CCI rats were placed in customized observation cages that were then placed in a darkened and noise-free room to conduct behavioral observations. The animals were acclimated for at least 30 min. Mechanical allodynia was determined as previously described [Ahn, D. K. et al., Pain, 2009, 146: 114-120], by observing withdrawal behavior, produced by 10 successive trials of constant air-puff pressure (4-s duration, 10-s intervals) in freely moving rats. The intensity and intervals of the air-puff pressure were controlled with a pneumatic pump module (BH2 system, Harvard Apparatus, Holliston, Mass.). The air puffs were applied through a 26-gauge metal tube (length, 10 cm) located 1 cm from the skin at a 90° angle. Thresholds were determined through the air-puff pressure at which each rat withdrew its head in 50% of the trials. The cutoff pressure for the air puffs was 40 psi. […] After eugenol (1 μg/30 μL, 5 μg/30 μL or 10 μg/30 μL; 200 μM, 1 mM, or 2 mM, respectively) was administered subcutaneously into the vibrissa pad, air-puff thresholds were determined at 15 and 30 min, and at 1, 2, 3, 4, 5, 6, and 24 hr after eugenol injection. In the control group, 30 μL of the vehicle (30% DMSO/saline) was injected subcutaneously."}, "ION-CCI rats [4]": {"system": "ION-CCI rats", "assay": "Thermal hyperalgesia, head withdrawal latency to radiant heat", "type": "in vivo, rat", "experimental": "as §1, §2\nThermal hyperalgesia was also determined as previously described [Ahn, D. K. et al., Pain, 2009, 146: 114-120; Park, C. K. et al., Pain, 2009, 144: 84-94]. Each rat was placed in a customized cylinder-type acrylic rodent restrainer (height 40 to 60 mm, length 70 to 120 mm). […] Each restrainer was placed in a darkened and noise-free room, and the animals were habituated for at least 30 min before the start of the experiment. After radiant heat was applied to the midregion of the left vibrissa pad, the head withdrawal latency was determined. The application of heat stimuli was performed using an infrared thermal stimulator (Infrared Diode Laser, LVI-808-10, LVI tech, Seoul, Korea). The power and current of the thermal stimulator were adjusted to 11 W and 18.1 A, respectively. The thermal stimuli produced stable withdrawal latencies of approximately 11 s for a 10-cm distance from the heat source to the vibrissa pad. […] After eugenol (10 μg/30 μL or 50 μg/30 μL; 2 mM or 10 mM, respectively) was administered subcutaneously into the vibrissa pad, the latencies of withdrawal responses were determined at 10, 20, 30, 40, 50, and 60 min and 24 h after eugenol injection. […]"}, "[5]": {"system": "voltage-gated sodium channels (VGSCs)", "settings": "conventional concentration, equals 50 μg; cited from earlier work"}, "ION-CCI rats [6]": {"system": "ION-CCI rats", "settings": ">50 μg; cited from earlier work"}, "injured nerve fibers": {"system": "injured nerve fibers", "settings": "in vivo; cited from earlier work"}, "Ih conductance": {"system": "Ih conductance", "settings": "cited from earlier work"}, "[7]": {"settings": "concentration lower than that which would inhibit VGSCs (50 μg; 10 mM)"}}, "note": "“Also recorded” adds a separate entry of the source.", "data": [{"molecule": "C=CCc1ccc(O)c(OC)c1", "note": "[eugenol, 4-allyl-2-methoxyphenol]", "values": [{"measurement": "eugenol-induced Ih inhibition with 8-Br-cAMP", "setting": "[1]; 200 μM eugenol, 8-Br-cAMP (100 μM) in pipette solution, n=6", "value": "17.5±3.7", "unit": "%"}, {"measurement": "eugenol-induced Ih inhibition with Rp-cAMPs", "setting": "[1]; 200 μM eugenol, Rp-cAMPs (100 μM), n=6", "value": "25.7±3.4", "unit": "%"}, {"measurement": "eugenol-induced Ih inhibition with Sp-cAMPS", "setting": "[1]; 200 μM eugenol, Sp-cAMPs (100 μM), n=5", "value": "20.1±3.1", "unit": "%"}, {"measurement": "Ih inhibition after pretreatment with NEM", "setting": "[1]; 200 μM eugenol, TG neurons pretreated 5 min with NEM (50 μM), n=8", "value": "69.2±4.4", "unit": "%"}, {"measurement": "Ih inhibition", "setting": "[1]; 200 μM, TG neurons of adult (naive) rats, n=11", "value": "73.0±3.9", "unit": "%"}, {"measurement": "Ih inhibition", "setting": "[1]; 200 μM, TG neurons of neonatal rats, n=27", "value": "63.3±1.6", "unit": "%"}, {"measurement": "Ih inhibition", "setting": "[1]; 200 μM, injured DiI-labeled TG neurons of ION-CCI rats, n=7", "value": "67.5±4.0", "unit": "%"}, {"measurement": "reversibility of Ih inhibition", "setting": "[1]; 200 μM, sequential application, FIG. 2A", "value": "reversible and repetitively reproduced"}, {"measurement": "maximal Ih amplitude", "setting": "[1]; 200 μM, step pulses −50 to −120 mV, full range of voltages", "value": "reduced"}, {"measurement": "Eugenol-induced Ih inhibition", "setting": "[1]; 200 μM, without NEM, n=8, FIG. 6A", "value": "66.1±1.8", "unit": "%"}, {"measurement": "Ih block", "setting": "[1]; 500 μM and 1 mM, FIG. 3", "value": "complete Ih block"}, {"measurement": "mean Vrev (reversal potential of Ih)", "setting": "[1]; after application of 200 μM eugenol, n=4, control −29.4±2.3 mV", "value": "−25.8±1.4", "unit": "mV"}, {"measurement": "IC50", "setting": "[1]; read-out: IC50 of Ih inhibition, TG neurons, dose dependent, FIG. 3", "value": 157, "unit": "µM"}, {"measurement": "dV/dt of action potential", "setting": "TG neurons", "value": "not changed"}, {"measurement": "firing rates of action potentials", "setting": "TG neurons; 50 pA depolarizing current injection, n=4", "value": "reduced"}, {"measurement": "VGSC currents", "setting": "[2]", "value": "not affected"}, {"measurement": "air-puff thresholds", "setting": "ION-CCI rats [3]; 1 μg subcutaneous into vibrissa pad, 7 day ION-CCI", "value": "significantly enhanced"}, {"measurement": "air-puff threshold", "setting": "ION-CCI rats [3]; 5 to 10 μg subcutaneous, cutoff 40 psi", "value": "reached the cutoff"}, {"measurement": "onset of effect", "setting": "ION-CCI rats [3]; FIG. 7B", "value": "occurred immediately"}, {"measurement": "effect on mechanical allodynia", "setting": "ION-CCI rats [3]; [7]", "value": "ameliorating effect"}, {"measurement": "antiallodynic effects on mechanical allodynia", "setting": "ION-CCI rats [3]; subcutaneous 1 μg, 5 μg, 10 μg, n=6 per group, p<0.05", "value": "significantly produced prolonged the antiallodynic effects"}, {"measurement": "thermal hyperalgesia / thermal hypersensitivity", "setting": "ION-CCI rats [4]; 50 μg subcutaneous, n=6, p<0.05", "value": "significantly reduced; also recorded: significantly inhibited"}, {"measurement": "thermal hyperalgesia", "setting": "ION-CCI rats [4]; <10 μg", "value": "not effective"}, {"measurement": "effect on thermal hyperalgesia", "setting": "ION-CCI rats [4]; [7]", "value": "no effect"}, {"measurement": "thermal hypersensitivity", "setting": "ION-CCI rats [4]; low dose 10 μg subcutaneous, n=6", "value": "no effect"}, {"measurement": "concentration at which eugenol inhibits VGSCs", "setting": "[5]", "value": 10, "unit": "mM"}, {"measurement": "thermal pain / thermal hyperalgesia, previous study", "setting": "ION-CCI rats [6]", "value": "blocks thermal pain in a dose-dependent manner; also recorded: ameliorated thermal hyperalgesia"}]}, {"molecule": "CCN(c1ccccc1)c1cc(=NC)n(C)c(C)n1.Cl", "note": "[ZD7288]", "values": [{"measurement": "pain behavior", "setting": "injured nerve fibers", "value": "reversed"}, {"measurement": "spontaneous discharges in injured nerve fibers", "setting": "injured nerve fibers", "value": "reversed"}, {"measurement": "action potential duration", "setting": "Ih conductance", "value": "prolonged"}, {"measurement": "repetitive firing during tetanic bursts", "setting": "Ih conductance", "value": "diminished"}]}]}
